Values of other authors as cited in article PMC5641599 (Molecular Metabolism, 2017).
Like-named read-outs stand apart in the source and are kept apart here.

Test system: MC4R variants
Details: cited from earlier work

With NDP-MSH as the substance, how does the “Binding Bmax (% of WT)” value (MC4R I301T, ref Vaisse C, J Clin Invest, 2000) read?
Its value is 20.0 % of WT.

What about the “Binding Bmax (% of WT)” value (MC4R I301T, ref Xiang Z, Biochemistry, 2006) of the same substance?
The value was 35.6 % of WT.

What about the “Binding Bmax (% of WT)” value (MC4R I316S, ref Xiang Z, Biochemistry, 2006) of the same substance?
The value was 55.6 % of WT.

And the “Binding Bmax (% of WT)” value (MC4R I316S, ref Yeo GS, Hum Mol Genet, 2003)?
Its value is 28.0 % of WT.

And the “Binding Bmax (% of WT)” value (MC4R I317T, ref Nijenhuis WA, J Biol Chem, 2003)?
Its value is 42.0 % of WT.

What about the “Binding Bmax (% of WT)” value (MC4R I317T, ref VanLeeuwen, J Biol Chem, 2003) of the same substance?
The value was 66.7 % of WT.

What about the “Binding Bmax (% of WT)” value (MC4R I317T, ref Xiang Z, Biochemistry, 2006) of the same substance?
Its value is 20.0 % of WT.

What about the “Binding Bmax (% of WT)” value (MC4R I317V, ref Fan ZC, J Cell Mol Med, 2009) of the same substance?
The value was 94.0 % of WT.

And the “Binding Bmax (% of WT)” value (MC4R I317V, ref Xiang Z, Biochemistry, 2010)?
The value was 91.9 % of WT.

And the “Binding Bmax (% of WT)” value (MC4R L54P, ref Tan K, Endocrinology, 2009)?
Its value is 32.5 % of WT.

And the “Binding Bmax (% of WT)” value (MC4R L106P, ref Xiang Z, Biochemistry, 2006)?
Its value is 2.2 % of WT.

What about the “Binding Bmax (% of WT)” value (MC4R L106P, ref Yeo GS, Hum Mol Genet, 2003) of the same substance?
The value was 18.7 % of WT.

And the “Binding Bmax (% of WT)” value (MC4R L304F, ref van der Berg L, Obesity, 2011)?
Its value is 40.0 % of WT.

What about the “Binding Bmax (% of WT)” value (MC4R L325F, ref Fan ZC, J Cell Mol Med, 2009) of the same substance?
The value was 92.0 % of WT.

What about the “Binding Bmax (% of WT)” value (MC4R L325F, ref Larsen LH, J Clin Endocrinol Metab, 2005) of the same substance?
Its value is 0.0 % of WT.

What about the “Binding Bmax (% of WT)” value (MC4R L325F, ref Xiang Z, Biochemistry, 2010) of the same substance?
Its value is 70.3 % of WT.

What about the “Binding Bmax (% of WT)” value (MC4R N62S, HEK293 cell line, ref Huang H, Int J Biol Sci, 2014) of the same substance?
Its value is 25.0 % of WT.

And the “Binding Bmax (% of WT)” value (MC4R N62S, ref Tao YX, Endocrinology, 2003)?
Its value is 5.0 % of WT.

What about the “Binding Bmax (% of WT)” value (MC4R N62S, ref Xiang Z, Biochemistry, 2006) of the same substance?
Its value is 1.4 % of WT.

And the “Binding Bmax (% of WT)” value (MC4R N62S, ref Yeo GS, Hum Mol Genet, 2003)?
Its value is 20.0 % of WT.

And the “Binding Bmax (% of WT)” value (MC4R N97D, ref Xiang Z, Biochemistry, 2006)?
Its value is 8.9 % of WT.

And the “Binding Bmax (% of WT)” value (MC4R N97D, ref Yeo GS, Hum Mol Genet, 2003)?
Its value is 10.5 % of WT.

And the “Binding Bmax (% of WT)” value (MC4R N274S, ref Tao YX, Endocrinology, 2003)?
The value was 144.0 % of WT.

What about the “Binding Bmax (% of WT)” value (MC4R N274S, ref Xiang Z, Biochemistry, 2006) of the same substance?
Its value is 66.7 % of WT.

And the “Binding Bmax (% of WT)” value (MC4R P48S, ref Tao YX, Endocrinology, 2003)?
Its value is 79.0 % of WT.

And the “Binding Bmax (% of WT)” value (MC4R P48S, ref Xiang Z, Biochemistry, 2010)?
The value was 48.6 % of WT.

What about the “Binding Bmax (% of WT)” value (MC4R P78L, HEK293 cell line, ref Huang H, Int J Biol Sci, 2014) of the same substance?
The value was 0.0 % of WT.

What about the “Binding Bmax (% of WT)” value (MC4R P78L, ref Nijenhuis WA, J Biol Chem, 2003) of the same substance?
The value was 0.9 % of WT.

What about the “Binding Bmax (% of WT)” value (MC4R P78L, ref Tao YX, Endocrinology, 2003) of the same substance?
The value was 0.0 % of WT.

And the “Binding Bmax (% of WT)” value (MC4R P78L, ref Xiang Z, Biochemistry, 2006)?
Its value is 0.556 % of WT.

What about the “Binding Bmax (% of WT)” value (MC4R P299H, ref Roubert P, J Endocrinol, 2010) of the same substance?
The value was 0.0 % of WT.

And the “Binding Bmax (% of WT)” value (MC4R P299H, ref Xiang Z, Biochemistry, 2006)?
Its value is 1.2 % of WT.

What about the “Binding Bmax (% of WT)” value (MC4R P299L, ref Xiang Z, Biochemistry, 2010) of the same substance?
Its value is 2.4 % of WT.

What about the “Binding Bmax (% of WT)” value (MC4R R305W, ref Roubert P, J Endocrinol, 2010) of the same substance?
Its value is 193.9 % of WT.

What about the “Binding Bmax (% of WT)” value (MC4R S58C, ref Roubert P, J Endocrinol, 2010) of the same substance?
Its value is 27.6 % of WT.

What about the “Binding Bmax (% of WT)” value (MC4R S58C, ref Tao YX, Endocrinology, 2003) of the same substance?
Its value is 14.0 % of WT.

And the “Binding Bmax (% of WT)” value (MC4R S58C, ref Xiang Z, Biochemistry, 2006)?
Its value is 22.2 % of WT.

And the “Binding Bmax (% of WT)” value (MC4R S94R, ref Xiang Z, Biochemistry, 2010)?
Its value is 0.135 % of WT.

What about the “Binding Bmax (% of WT)” value (MC4R S295P, ref Tao YX, J Clin Endocrinol Metab, 2005) of the same substance?
The value was 129.0 % of WT.

And the “Binding Bmax (% of WT)” value (MC4R S295P, ref Xiang Z, Biochemistry, 2010)?
Its value is 162.2 % of WT.

And the “Binding Bmax (% of WT)” value (MC4R T112M, ref Nijenhuis WA, J Biol Chem, 2003)?
Its value is 100.0 % of WT.

What about the “Binding Bmax (% of WT)” value (MC4R T112M, ref Tao YX, J Clin Endocrinol Metab, 2005) of the same substance?
Its value is 130.0 % of WT.

What about the “Binding Bmax (% of WT)” value (MC4R V50M, ref Roubert P, J Endocrinol, 2010) of the same substance?
The value was 69.4 % of WT.

And the “Binding Bmax (% of WT)” value (MC4R V50M, ref Tao YX, Endocrinology, 2003)?
The value was 74.0 % of WT.

And the “Binding Bmax (% of WT)” value (MC4R V50M, ref Xiang Z, Biochemistry, 2010)?
The value was 59.5 % of WT.

And the “Binding Bmax (% of WT)” value (MC4R V95I, ref Xiang Z, Biochemistry, 2006)?
The value was 0.7 % of WT.

What about the “Binding Bmax (% of WT)” value (MC4R V103I, ref Ho G, J Biol Chem, 1999) of the same substance?
Its value is 123.3 % of WT.

What about the “Binding Bmax (% of WT)” value (MC4R V103I, ref Xiang Z, Biochemistry, 2006) of the same substance?
The value was 100.0 % of WT.

What about the “Binding Bmax (% of WT)” value (MC4R Y302F, ref Roth CL, Endocrine, 2009) of the same substance?
Its value is 80.0 % of WT.

And the “Binding Bmax (% of WT)” value (MC4R Y332H, ref Santoro N, BMC Med Genet, 2009)?
Its value is 100.0 % of WT.
